In test [1] the test system is monocytic THP1 cells infected with HIV VSV-G pseudotyped GFP-NEF reporter virus. As to the kind of experiment: cells. The class given is cell-based. The note with it: Human immunodeficiency virus 1, THP-1, 24 h.
Test [2] concerns CD4 cells, isolated from healthy donor PMBCs, infected with HIV VSV-G pseudotyped GFP-GAG reporter virus. Kind of test: tissue or blood. The class given is cell-based. To be noted: Homo sapiens, 72 h.

The structures appear in SMILES notation.

Consider `Cc1cc(/C=C/C#N)cc(C)c1Oc1nc(NC23CC(C#N)(C2)C3)nc2[nH]ncc12` [Compound 10, (E)-3-((4-(4-(2-cyanovinyl)-2,6-dimethylphenoxy)-1H-pyrazolo[3,4-d]pyrimidin-6-yl)amino)bicyclo[1.1.1]pentane-1-carbonitrile], for which the EC50 in test [1] turned out to be 65.9 nM; in test [2], 54.7 nM.

For the molecule `Cc1nc2nc(NC34CC(C#N)(C3)C4)nc(Oc3c(C)cc(/C=C/C#N)cc3C)c2[nH]1` [Compound 14, (E)-3-((6-(4-(2-cyanovinyl)-2,6-dimethylphenoxy)-8-methyl-7H-purin-2-yl)amino)bicyclo[1.1.1]pentane-1-carbonitrile], the EC50 in test [1] turned out to be 81.3 nM; in test [2], 84.2 nM.

Regarding `Cc1cc(/C=C/C#N)cc(C)c1Nc1nc(NC23CC(C#N)(C2)C3)nc2scnc12` [Compound 23, (E)-3-((7-((4-(2-cyanovinyl)-2,6-dimethylphenyl)amino)thiazolo[5,4-d]pyrimidin-5-yl)amino)bicyclo[1.1.1]pentane-1-carbonitrile], the EC50 in test [1] turned out to be 31.7 nM; in test [2], 17 nM.

In the case of `Cc1cc(/C=C/C#N)cc(C)c1Oc1nc(NC23CC(C#N)(C2)C3)nc2[nH]c(=O)[nH]c12` [Compound 27, (E)-3-((6-(4-(2-cyanovinyl)-2,6-dimethylphenoxy)-8-oxo-8,9-dihydro-7H-purin-2-yl)amino)bicyclo[1.1.1]pentane-1-carbonitrile], the results for the EC50 in test [1] and in test [2] were 68.3 nM and 99.4 nM, respectively.

Take `COc1ccc(Cn2cnc3c(Oc4c(C)cc(/C=C/C#N)cc4C)nc(NC45CC(C#N)(C4)C5)nc32)cc1` [Compound 42, (E)-3-((6-(4-(2-cyanovinyl)-2,6-dimethylphenoxy)-9-(4-methoxybenzyl)-9H-purin-2-yl)amino)bicyclo[1.1.1]pentane-1-carbonitrile]: the EC50 was determined as 518 nM in test [1] and 894 nM in test [2].

On to `COc1ccc(Cn2cnc3nc(NC45CC(C#N)(C4)C5)nc(Oc4c(C)cc(/C=C/C#N)cc4C)c32)cc1` [Compound 43, (E)-3-((6-(4-(2-cyanovinyl)-2,6-dimethylphenoxy)-7-(4-methoxybenzyl)-7H-purin-2-yl)amino)bicyclo[1.1.1]pentane-1-carbonitrile], for which the EC50 in test [1] was determined as 90.5 nM; in test [2] it was 87.7 nM.

As to `Cc1cc(/C=C/C#N)cc(C)c1Oc1nc(NC23CC(C#N)(C2)C3)nc2nc(C3CC3)[nH]c12` [Compound 49, (E)-3-((6-(4-(2-cyanovinyl)-2,6-dimethylphenoxy)-8-cyclopropyl-7H-purin-2-yl)amino)bicyclo[1.1.1]pentane-1-carbonitrile], the EC50 was found to be 110 nM in test [1] and 166 nM in test [2].

Turning to `Cc1cc(/C=C/C#N)cc(C)c1Oc1nc(NC23CC(C#N)(C2)C3)nc2nc(C3CCC3)[nH]c12` [Compound 50, (E)-3-((6-(4-(2-cyanovinyl)-2,6-dimethylphenoxy)-8-cyclobutyl-7H-purin-2-yl)amino)bicyclo[1.1.1]pentane-1-carbonitrile], the EC50 in test [1] amounted to 166 nM; in test [2] it was 151 nM.

For `Cc1cc(/C=C/C#N)cc(C)c1Oc1nc(NC23CC(C#N)(C2)C3)nc2c1C[N+](C)(C)C2` [Compound 152, (E)-2-((3-cyanobicyclo[1.1.1]pentan-1-yl)amino)-4-(4-(2-cyanovinyl)-2,6-dimethylphenoxy)-6,6-dimethyl-6,7-dihydro-5H-pyrrolo[3,4-d]pyrimidin-6-ium], the EC50 in test [2] was 3360 nM.

`Cc1cc(/C=C/C#N)cc(C)c1Oc1nc(NC23CC(CC(F)F)(C2)C3)nc2nc[nH]c12` [Compound 155, (E)-3-(4-((2-((3-(2,2-difluoroethyl)bicyclo[1.1.1]pentan-1-yl)amino)-7H-purin-6-yl)oxy)-3,5-dimethylphenyl)acrylonitrile]: in test [2], the midpoint of the response, the EC50, lay at 419 nM.

As a reminder, the EC50 is the midpoint of the concentration-response curve. Low readings indicate greater potency, high ones weaker potency.

The values above are taken from patent publication US20250333424A1, “ANTIVIRAL COMPOUNDS” (Gilead Sciences, Inc., priority 2024, published 2025).
